Measurements as given in ChEMBL document CHEMBL4043239, “Discovery and optimization of oxadiazole-based FLAP inhibitors” (Bioorg Med Chem Lett, 2017).
Values after ≈ are worked out from the molar mass of the structure shown. Values belong to the compound of their own block, whether it stands above or below them.

Assays:
[1] = Stability in human liver microsomes at 1 uM pretreated for 10 mins followed by NADPH addition after 60 mins by LC/MS analysis relative to hepatic blood flow; type: ADME, microsome; conditions: read-out: Stability
hERG (KCNH2) [2] = biological target: T1, hERG (KCNH2) (Homo sapiens, UniProt Q12809); assay: Inhibition of human ERG expressed in CHO cells at 10 uM at -70mV holding potential measured after 300 secs by IonWorks electrophysiology method relative to control; type: cell-based; conditions: CHO cells expressing human ERG
[3] = biological target: T2, Arachidonate 5-lipoxygenase-activating protein (Homo sapiens, UniProt P20292); assay: Displacement of [125I]-L-691831 from human FLAP expressed in Sf9 cell membranes after 2 hrs by Topcount method
T2 sequence (P20292 whole entry): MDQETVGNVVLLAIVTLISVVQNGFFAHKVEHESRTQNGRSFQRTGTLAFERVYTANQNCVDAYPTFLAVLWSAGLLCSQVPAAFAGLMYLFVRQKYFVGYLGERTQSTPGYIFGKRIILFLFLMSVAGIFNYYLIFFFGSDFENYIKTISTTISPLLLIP

[4] = biological target: T2, Arachidonate 5-lipoxygenase-activating protein; assay: Inhibition of FLAP in calcimycin-stimulated human whole blood assessed as reduction in LTB4 production pretreated for 15 mins followed by calcimycin addition after 30 mins by ELISA
[5] = Clearance in human hepatocytes at 1 uM measured after 1 hr by LC/MS analysis relative to hepatic blood flow; type: ADME, cell-based, Hepatocyte
hERG (KCNH2) [6] = biological target: T1, hERG (KCNH2); assay: Inhibition of human ERG expressed in CHO cells at 17 uM at -70mV holding potential measured after 300 secs by IonWorks electrophysiology method relative to control; type: cell-based; conditions: CHO cells expressing human ERG
[7] = biological target: T3, Arachidonate 5-lipoxygenase-activating protein (Homo sapiens) (UniProt P20292); assay: Ratio of IC50 for FLAP in calcimycin-stimulated human whole blood to IC50 for displacement of [125I]-L-691831 from human FLAP expressed in Sf9 cell membranes
T3 sequence (whole entry): T2 sequence (P20292 whole entry)

[8] = Aqueous kinetic solubility of the compound at pH 7.4; type: physicochemical; conditions: for solubility kinetic: aqueous, read-out: Kinetic_solubility; for Kinetic_solubility: buffer
hERG (KCNH2) [9] = biological target: T1, hERG (KCNH2); assay: Inhibition of human ERG expressed in CHO cells at 41 uM at -70mV holding potential measured after 300 secs by IonWorks electrophysiology method relative to control; type: cell-based; conditions: CHO cells expressing human ERG
hERG (KCNH2) [10] = biological target: T1, hERG (KCNH2); assay: Inhibition of human ERG expressed in HEK293 cells at 30 uM by whole-cell patch clamp method relative to control; type: cell-based; conditions: HEK293 cells expressing human ERG
Rattus norvegicus [11] = assay: Clearance in Sprague-Dawley rat at 1 mg/kg, iv by HPLC-MS/MS analysis relative to hepatic blood flow; type: ADME, organism-based; conditions: in vivo
[12] = Mean residence time in Sprague-Dawley rat at 1 mg/kg, iv by HPLC-MS/MS analysis; type: ADME, organism-based; conditions: in vivo
[13] = Oral bioavailability in Sprague-Dawley rat at 3 mg/kg by HPLC-MS/MS analysis; type: ADME, organism-based; conditions: in vivo
[14] = Aqueous equilibrium solubility in citric acid/disodium phosphate buffer at pH 6.8 at 1 uM after 24 hrs by HPLC method; type: physicochemical; conditions: for solubility thermodynamic at 24 h, 1 µM: citric acid/disodium phosphate buffer, pH 6.8
[15] = Volume of distribution at steady state in Sprague-Dawley rat at 1 mg/kg, iv by HPLC-MS/MS analysis; type: ADME, organism-based; conditions: in vivo, read-out: Vdss
hERG (KCNH2) [16] = biological target: T1, hERG (KCNH2); assay: Inhibition of human ERG expressed in CHO cells at 16 uM at -70mV holding potential measured after 300 secs by IonWorks electrophysiology method relative to control; type: cell-based; conditions: CHO cells expressing human ERG
Rattus norvegicus [17] = assay: Clearance in Wistar rat at 1 mg/kg, iv by HPLC-MS/MS analysis relative to hepatic blood flow; type: ADME, organism-based; conditions: in vivo
[18] = Mean residence time in Wistar rat at 1 mg/kg, iv by HPLC-MS/MS analysis; type: ADME, organism-based; conditions: in vivo
[19] = Volume of distribution at steady state in Wistar rat at 1 mg/kg, iv by HPLC-MS/MS analysis; type: ADME, organism-based; conditions: in vivo, read-out: Vdss
hERG (KCNH2) [20] = biological target: T1, hERG (KCNH2); assay: Inhibition of human ERG expressed in HEK293 cells at 34 uM by whole-cell patch clamp method relative to control; type: cell-based; conditions: HEK293 cells expressing human ERG
[21] = Oral bioavailability in Wistar rat at 3 mg/kg by HPLC-MS/MS analysis; type: ADME, organism-based; conditions: in vivo
hERG (KCNH2) [22] = biological target: T1, hERG (KCNH2); assay: Inhibition of human ERG expressed in CHO cells at 34 uM at -70mV holding potential measured after 300 secs by IonWorks electrophysiology method relative to control; type: cell-based; conditions: CHO cells expressing human ERG
hERG (KCNH2) [23] = biological target: T1, hERG (KCNH2); assay: Inhibition of human ERG expressed in CHO cells at 13 uM at -70mV holding potential measured after 300 secs by IonWorks electrophysiology method relative to control; type: cell-based; conditions: CHO cells expressing human ERG
hERG (KCNH2) [24] = biological target: T1, hERG (KCNH2); assay: Inhibition of human ERG expressed in CHO cells at 33 uM at -70mV holding potential measured after 300 secs by IonWorks electrophysiology method relative to control; type: cell-based; conditions: CHO cells expressing human ERG
hERG (KCNH2) [25] = biological target: T1, hERG (KCNH2); assay: Inhibition of human ERG expressed in CHO cells at 21 uM at -70mV holding potential measured after 300 secs by IonWorks electrophysiology method relative to control; type: cell-based; conditions: CHO cells expressing human ERG
hERG (KCNH2) [26] = biological target: T1, hERG (KCNH2); assay: Inhibition of human ERG expressed in CHO cells at 42 uM at -70mV holding potential measured after 300 secs by IonWorks electrophysiology method relative to control; type: cell-based; conditions: CHO cells expressing human ERG
hERG (KCNH2) [27] = biological target: T1, hERG (KCNH2); assay: Inhibition of human ERG expressed in HEK293 cells at 37 uM by whole-cell patch clamp method relative to control; type: cell-based; conditions: HEK293 cells expressing human ERG
hERG (KCNH2) [28] = biological target: T1, hERG (KCNH2); assay: Inhibition of human ERG expressed in CHO cells at 12 uM at -70mV holding potential measured after 300 secs by IonWorks electrophysiology method relative to control; type: cell-based; conditions: CHO cells expressing human ERG
hERG (KCNH2) [29] = biological target: T1, hERG (KCNH2); assay: Inhibition of human ERG expressed in CHO cells at 9 uM at -70mV holding potential measured after 300 secs by IonWorks electrophysiology method relative to control; type: cell-based; conditions: CHO cells expressing human ERG

T1 sequence (Q12809 whole entry): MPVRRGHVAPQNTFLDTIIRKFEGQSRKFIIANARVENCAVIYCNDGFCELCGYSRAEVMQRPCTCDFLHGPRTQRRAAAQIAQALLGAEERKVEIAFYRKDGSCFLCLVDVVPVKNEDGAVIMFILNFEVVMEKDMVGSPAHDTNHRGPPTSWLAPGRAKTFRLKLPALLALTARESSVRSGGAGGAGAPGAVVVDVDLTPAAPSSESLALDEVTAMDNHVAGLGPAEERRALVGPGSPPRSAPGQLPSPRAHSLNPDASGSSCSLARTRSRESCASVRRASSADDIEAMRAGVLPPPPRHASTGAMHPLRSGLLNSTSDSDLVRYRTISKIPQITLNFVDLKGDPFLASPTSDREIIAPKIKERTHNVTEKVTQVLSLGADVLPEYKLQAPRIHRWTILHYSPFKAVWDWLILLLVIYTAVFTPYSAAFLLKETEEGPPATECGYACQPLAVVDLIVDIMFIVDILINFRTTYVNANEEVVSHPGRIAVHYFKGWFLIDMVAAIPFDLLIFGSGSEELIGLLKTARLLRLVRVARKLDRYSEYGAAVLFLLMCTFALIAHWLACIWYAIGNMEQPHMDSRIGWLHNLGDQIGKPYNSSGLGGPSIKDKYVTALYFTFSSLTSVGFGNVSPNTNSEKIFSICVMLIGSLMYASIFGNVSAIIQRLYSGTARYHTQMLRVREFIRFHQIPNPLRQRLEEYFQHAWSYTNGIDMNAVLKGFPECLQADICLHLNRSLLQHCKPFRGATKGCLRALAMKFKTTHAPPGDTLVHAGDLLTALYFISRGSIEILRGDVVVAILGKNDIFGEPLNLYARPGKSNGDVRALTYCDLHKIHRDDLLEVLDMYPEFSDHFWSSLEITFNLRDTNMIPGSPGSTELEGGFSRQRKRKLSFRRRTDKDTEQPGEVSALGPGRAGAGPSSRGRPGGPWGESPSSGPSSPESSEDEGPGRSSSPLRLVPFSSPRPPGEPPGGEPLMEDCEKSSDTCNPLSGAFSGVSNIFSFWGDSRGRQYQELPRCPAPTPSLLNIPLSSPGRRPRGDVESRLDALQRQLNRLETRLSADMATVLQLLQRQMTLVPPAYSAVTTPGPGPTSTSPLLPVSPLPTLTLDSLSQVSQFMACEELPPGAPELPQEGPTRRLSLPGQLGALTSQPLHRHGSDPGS

hepatic extraction ratio at 1 h, 1 µM [1]: < 0.3
IC50 [3]: 3 nM
IC50 [4]: 26 nM
hepatic extraction ratio at 1 h, 1 µM [5]: 0.59
Compound: Cn1cc(-c2nc([C@@](C)(c3ccc(-c4cnc(N)nc4)nc3)C3CC3)no2)cn1
inhibition at 5 min, 10 µM (hERG (KCNH2) [2]): 13%

hepatic extraction ratio at 1 h, 1 µM [1]: < 0.24
Ratio IC50 [7]: 7
solubility kinetic [8]: > 39 µg/mL
IC50 [4]: 118 nM
Compound: Nc1ncc(-c2ccc(C3(c4noc(N5CCC(O)CC5)n4)CCC3)cc2)cn1
inhibition at 5 min, 17 µM (hERG (KCNH2) [6]): 40%

IC50 [3]: 434 nM
IC50 [4]: 324 nM
Compound: C[C@@](c1ccc(-c2cnc(N)nc2)nc1)(c1noc(N2CCC(O)CC2)n1)C1CC1
inhibition at 5 min, 41 µM (hERG (KCNH2) [9]): 17%

hepatic extraction ratio at 1 h, 1 µM [1]: < 0.3
CL (Rattus norvegicus [11]): 10%
MRT [12]: 4.6 h
bioavailability [13]: 114%
solubility thermodynamic at 24 h, 1 µM [14]: 210 µg/mL (≈ 468 µM)
IC50 [3]: 13 nM
Vd [15]: 2 L/kg
Kinetic_solubility [8]: Soluble
IC50 [4]: 41 nM
hepatic extraction ratio at 1 h, 1 µM [5]: 0.3
Compound: CC(C)[C@](C)(c1ccc(-c2cnc(N)nc2)nc1)c1noc(-c2cnn(CC(C)(C)O)c2)n1
inhibition at 30 µM (hERG (KCNH2) [10]): 21%

hepatic extraction ratio at 1 h, 1 µM [1]: 0.29
IC50 [3]: 17 nM
solubility kinetic [8]: > 40 µg/mL
IC50 [4]: 87 nM
Compound: CC1(O)CCN(c2nc(C3(c4ccc(-c5cnc(N)nc5)cc4)CCC3)no2)CC1
inhibition at 5 min, 16 µM (hERG (KCNH2) [16]): 45%

CL (Rattus norvegicus [17]): 33%
MRT [18]: 1.6 h
Vd [19]: 1.6 L/kg
solubility thermodynamic at 24 h, 1 µM [14]: 111 µg/mL (≈ 273 µM)
bioavailability [21]: 75%
Compound: C[C@@](c1ccc(-c2cnc(N)nc2)cc1)(c1noc(N2CCC(O)CC2)n1)C1CC1
inhibition at 34 µM (hERG (KCNH2) [20]): 30%
inhibition at 5 min, 34 µM (hERG (KCNH2) [22]): 30%

hepatic extraction ratio at 1 h, 1 µM [1]: 0.36
IC50 [3]: 46 nM
solubility kinetic [8]: 14 µg/mL (≈ 34.4 µM)
IC50 [4]: 173 nM
Compound: Nc1ncc(-c2ccc(C3(c4noc(N5CCC(CO)CC5)n4)CCC3)cc2)cn1
inhibition at 5 min, 13 µM (hERG (KCNH2) [23]): 68%

Ratio IC50 [7]: 59
solubility kinetic [8]: 4.1 µg/mL (≈ 10.9 µM)
IC50 [4]: 387 nM
Compound: Nc1ncc(-c2ccc(C3(c4noc(N5CCCCC5)n4)CCC3)cc2)cn1
inhibition at 5 min, 33 µM (hERG (KCNH2) [24]): 92%

hepatic extraction ratio at 1 h, 1 µM [1]: 0.58
IC50 [3]: 5.6 nM
IC50 [4]: 13 nM
Compound: CC1(O)CCN(c2nc([C@@](C)(c3ccc(-c4cnc(N)nc4)cc3)C3CC3)no2)CC1
inhibition at 5 min, 21 µM (hERG (KCNH2) [25]): 31%

solubility thermodynamic at 24 h, 1 µM [14]: 26 µg/mL (≈ 58.2 µM)
Kinetic_solubility [8]: Soluble
Compound: CC(C)(O)Cn1cc(-c2nc([C@@](C)(c3ccc(-c4cnc(N)nc4)nc3)C3CC3)no2)cn1
inhibition at 5 min, 42 µM (hERG (KCNH2) [26]): 34%

hepatic extraction ratio at 1 h, 1 µM [1]: < 0.24
IC50 [3]: 23 nM
IC50 [4]: 40 nM
hepatic extraction ratio at 1 h, 1 µM [5]: 0.31
Compound: CC(C)[C@](C)(c1ccc(-c2cnc(N)nc2)nc1)c1noc(-c2cnn(CC#N)c2)n1
inhibition at 37 µM (hERG (KCNH2) [27]): 38%

hepatic extraction ratio at 1 h, 1 µM [1]: < 0.24
IC50 [3]: 160 nM
Ratio IC50 [7]: 2
solubility kinetic [8]: > 36 µg/mL
IC50 [4]: 315 nM
Compound: Nc1ncc(-c2ccc(C3(c4noc(N5CC(O)C5)n4)CCC3)cc2)cn1
inhibition at 5 min, 12 µM (hERG (KCNH2) [28]): 18%

hepatic extraction ratio at 1 h, 1 µM [1]: 0.34
solubility ([14]; buffer, pH 6.8, 24 h, 1 µM): Soluble
IC50 [3]: 29 nM
Kinetic_solubility [8]: Soluble
IC50 [4]: 92 nM
Compound: CN(c1cnn(C)c1)c1nc([C@@](C)(c2ccc(-c3cnc(N)nc3)cc2)C2CC2)no1
inhibition at 5 min, 9 µM (hERG (KCNH2) [29]): 45%

hepatic extraction ratio at 1 h, 1 µM [1]: < 0.3
solubility thermodynamic at 24 h, 1 µM [14]: 84 µg/mL (≈ 194 µM)
IC50 [3]: 6.6 nM
Kinetic_solubility [8]: Soluble
IC50 [4]: 37 nM
hepatic extraction ratio at 1 h, 1 µM [5]: 0.34
Compound: CC(C)[C@](C)(c1ccc(-c2cnc(N)nc2)nc1)c1noc(-c2cnn(C3COC3)c2)n1
inhibition at 30 µM (hERG (KCNH2) [10]): 24%
